Results: a melting point compilation (Tetko et al.; mined from patent text by program, amines drawn as free bases though some values may be those of a salt)

melting point | Structure (SMILES)
121 to 123 °C | NS(=O)(=O)c1ccccc1S(=O)(=O)N1CCC1
140 to 141 °C | CN(CCNc1ccn2ncc(-c3cccs3)c2n1)C(=O)OC(C)(C)C
190 to 196 °C | CC1Cc2cc3c(cc2C(c2ccc([N+](=O)[O-])cc2)=NN1c1ncon1)OCO3 (configuration not stated)
93 °C | CC(=O)OCC1OC(ONc2ccc(C)cc2)C(OC(C)=O)C(OC(C)=O)C1OC(C)=O (configuration not stated)
155 to 157 °C | Cc1ccc2c3c(c(=O)oc2c1)CN(CCN1CC2CCC(CC2)C1)CC3
278 to 280 °C | NS(=O)(=O)c1ccc(C#Cc2cnc3c(C(F)(F)F)cc(-c4ccc(C(F)(F)F)cc4)cn23)cc1
287 to 289 °C | O=C1Cn2c(c(Cl)c3ccccc32)-c2ccccc2N1
306 to 307 °C | CN1C(=O)c2[nH]c3cc(Cl)ccc3c2Oc2ccccc21
145 to 147 °C | Cc1nc(C)c(Cl)c(NCc2nccc(SCCCSCCn3c([N+](=O)[O-])cnc3C)c2C)n1
83.5 to 84 °C | O=C(c1ccc(Cl)cc1)c1cccc(Br)n1
94 °C | CNC(=O)N(C)C(=O)Nc1nc(C(Cl)(Cl)Cl)ns1
123 to 124 °C | CO[C@H]1O[C@@H](C)[C@@H]2[C@H](O)[C@H]3CCCC[C@@H]3C[C@H]12
66 to 67 °C | COc1ccc(-c2ccc(C)nc2-c2ccc(OCCN3CCOCC3)cc2)cc1
116 to 119 °C | CC(C(=O)O)c1ccc(-c2ccccc2[N+](=O)[O-])cc1 (configuration not stated)
> 300 °C | Cc1cc2[nH]c(=O)c(C(=O)O)nc2cc1-n1ccc(CNC(=O)Nc2ccc(C(=O)O)cc2)c1
132 to 133 °C | CCc1c([N+](=O)[O-])c(C(N)=O)nn1CCN1CCOCC1
113 to 116 °C | Cc1c(NC(=O)C(CSC(=O)c2ccco2)Cc2ccccc2)cccc1C(=O)O (configuration not stated)
180 to 182 °C | CCn1c(=O)c2c(nc(/C=C/c3ccc(OCC(=O)c4ccccc4)c(OC)c3)n2C)n(CC)c1=O

melting point | Structure (SMILES)
161 °C | O=S1(=O)c2cccc3cccc(c23)N1CCN1CCC(Cc2c[nH]c3ccc(F)cc23)CC1
228 to 229 °C | CCOc1ccc(-c2nc(-c3ccc(N)c(C(=O)O)c3)cs2)cc1OCC
170 to 171 °C | CN1CCC(N=[N+]=[N-])(c2ccccc2)C(O)C1 (configuration not stated)
142 to 145 °C | Cc1nn(C)c(C)c1S(=O)(=O)n1c(CCCC(=O)O)cc2cc(Cl)ccc21
113 °C | COc1cc2c(cc1OC)SCCC(C(=O)N1CCN(C(=O)c3cc(OC)c(OC)c(OC)c3)CC1)=C2
205 to 208 °C | CSc1ncc(Oc2cccnc2)c(=O)[nH]1
258 to 259 °C | CC(=O)c1c(F)cc2c(=O)c(C(=O)O)cn3c2c1OCC3C (configuration not stated)
> 300 °C | Nc1ncc2cc(-c3c(F)cccc3F)c(N)nc2n1
> 300 °C | COc1ccc(C(=O)Nc2cc(NC(=O)c3cccc(NS(C)(=O)=O)c3)ccc2C)cc1OC
168 °C | COCCC(=O)Nc1ccc(Cl)c(C2(C)C(=O)N(Cc3ccc(OC)cc3OC)c3ccc(Cl)cc32)c1 (configuration not stated)
122 °C | COC(=O)Cn1c(=O)n(C)c(=O)n(-c2cc(F)ccc2[N+](=O)[O-])c1=O
198 °C | CC(C)n1c(S(=O)(=O)c2ccc(O)cc2)nc2ccccc21
131 to 133 °C | Cn1nnc(-c2ccc3c(ccn3-c3ccc(F)cc3)c2)n1
130 to 132 °C | Cc1ccc(-c2nc(Cl)nc(Cl)c2-c2ccccc2)cc1
192 °C | CC(=O)NC(=N)N(C)C1CCN(c2nc3ccccc3n2Cc2ccc(F)cc2)CC1
135 to 136 °C | COc1cc(CCCCC2OC(=O)NC2=O)ccc1OCc1nc(-c2ccccc2)oc1C (configuration not stated)
150 to 152 °C | CC1(C)CC(NC(=O)Nc2ccccc2)c2cc(C#N)ccc21 (configuration not stated)
136 to 138 °C | CN(C)c1nc2c(ccc3ccccc32)s1

Structure (SMILES) | melting point
CCCc1nnc2n1-c1ccc(Br)cc1C(c1ccccn1)=NC2 | 184 to 186 °C
